According to EP2408450B1, “ALPHA-(N-SULFONAMIDO)ACETAMIDE COMPOUND AS AN INHIBITOR OF BETA AMYLOID PEPTIDE PRODUCTION” (Bristol-Myers Squibb Company, priority 2009, dated 2010):

Experiments:
[1] = Metabolic stability in liver microsomes (human); type: in vitro ADME
Procedure: Mouse, rat, dog, human, and cynomolgus monkey liver microsomes were obtained from BD Gentest (Woburn, MA). The lot numbers were 13 (mouse), 8 (rat), 8 (dog), 19 and 26 (human), and 3 (cynomolgus monkey). […] The reaction, conducted in triplicate, was initiated by the addition of NADPH followed by incubation at 37°C for 50 minutes. Aliquots of samples (0.25 mL) were taken at 0, 5, 10, 20, 30, 40 and 50 minutes and the reaction was quenched by the addition of 3 volumes of acetonitrile. […] The reaction, conducted in triplicate, was initiated by the addition of NADPH followed by incubation at 37 °C for 50 minutes. Aliquots of samples (0.25 mL) were taken at 0, 5, 10, 20, 30, 40 and 50 minutes and the reaction was quenched by the addition of 3 volumes of acetonitrile. […] The reaction, conducted in duplicate, was initiated by the addition of NADPH followed by incubation at 37°C for 40 minutes. Aliquots of samples (0.25 mL) were taken at 0, 5, 10, 15, 20, 30 and 40 minutes and the reaction was quenched by the addition of 3 volumes of acetonitrile. For all studies, samples were analyzed immediately by an LC/MS method.

Aβ40 = test: Inhibition of Aβ40 formation in cultured H4 APP751 SWE cells; type: cell-based; details: H4-8Sw cells, mean ± SD, n = 50
Procedure: Cells were maintained in log phase through twice weekly passage at a 1:20 dilution. […] Following incubation for 19 hours in 5% CO2 at 37°C, plates were briefly centrifuged (1000 rpm, 5 min). […] Antibody cocktails were freshly prepared by dilution into 40 mM Tris-HCl (pH 7.4) with 0.2% BSA and added to assay plates. […] Assay plates containing antibodies were sealed with aluminum foil and incubated overnight at 4°C. Signal was determined using a Viewlux counter (Perkin Elmer) and IC50 values determined using curve fitting in CurveMaster (Excel Fit based).

CSF Aβ40 = test: Rat CSF Aβ40 assay (4G8-TSD ELISA); type: in vivo; details: acute rat studies; read-out: ED50 for reduction of CSF Aβ40
Text: As a result of these sequence differences, antibodies that recognize the N-terminal region of human Aβ, such as 26D6, bind weakly to rodent Aβ. […] Table 1: Summary of Antibody Pairs Used to Assay In vivo Samples Each of these assays was validated using several methods. […] The optimized and validated Aβ assays still contained a small amount of the signal (5-20% of vehicle control) which could not be depleted by anti-Aβ antibodies or treatment with γ-secretase inhibitors. […] Female Harlan Sprague-Dawley rats (∼200 - 250 g) were dosed daily by oral gavage with a dosing vehicle of 99% PEG-400, 1% Tween-80 at 4 mL/kg in the morning. […] All procedures were done in concordance with ACUC guidelines. […] Plasma was obtained after centrifugation. […] CSF samples were centrifuged to remove cells or debris prior to dilution at 1:2 in 4% BSA and frozen for subsequent analysis. […] Plates were coated with TSD antibody and washed as for the brain Aβ40 assay. CSF samples were diluted 1:10 in PBS, pH 7.8, 0.1 % Tween-20. At time of collection, CSF was previously diluted 1:2 in 4% BSA in water. […] Samples were detected using 4G8-biotin (Signet) diluted 1:8000 in PBS, 0.05% Tween, 0.1% BSA for 1 hour.

[2] = system: γ-secretase inhibitor binding sites in the brain; test: Gamma-secretase site occupancy in rat brain sections; type: in vivo
Procedure: Female Harlan Sprague-Dawley rats (∼200 - 250 g) were dosed daily by oral gavage with a dosing vehicle of 99% PEG-400, 1% Tween-80 at 4 mL/kg in the morning. […] All procedures were done in concordance with ACUC guidelines. […] Plasma was obtained after centrifugation. […] CSF samples were centrifuged to remove cells or debris prior to dilution at 1:2 in 4% BSA and frozen for subsequent analysis.
Brain sections were cut coronally at a thickness of 20 µm on a cryostat and thaw-mounted onto Superfrost Plus slides. Sections were saved at the level of the rostral hippocampus, with 3 sections per slide at intervals of about 120 µm, and frozen at -20°C until use. For occupancy studies, brain sections were warmed to room temperature, dried, incubated for 10 minutes in 50 mM HEPES buffer, pH 7.4, then transferred to the same buffer containing 1.5 nM [^3H]IN973 (Goldstein, M.E. et al., J. Pharmacol. Exp. Ther., 323:102-108 (2007)) or [^3H] (R)-4-((N-(1-amino-4-methyl-1-oxopentan-2-yl)-4-chlorophenylsulfonamido)methyl)-N-(2-methoxyethyl)benzamide and incubated at room temperature for 10 minutes. To define nonspecific binding, adjacent sections were incubated in buffer containing [^3H]IN973 or [^3H] (R)-4-((N-(1-amino-4-methyl-1-oxopentan-2-yl)-4-chlorophenylsulfonamido)methyl)-N-(2-methoxyethyl)benzamide, but including unlabeled γ-secretase inhibitor at 0.5 µM. After the incubation, the slides were washed three times for 2 minutes each in ice-cold PBS, pH 7.2, dipped in ice-cold distilled water, and dried with a fan blowing cool air. The slides were placed under tritium-sensitive phosphor storage screens (Amersham Biosciences, Arlington Heights, IL) and exposed in the dark for 7 days. Images were acquired from the phosphor storage screens using a Cyclone phosphor scanner (Packard, Meriden, CT) and OptiQuant acquisition and analysis software (Packard). Optical densities (expressed as digital light units per square millimeter) over areas of interest were measured and expressed as a percent of vehicle control.

CYP3A4 mRNA [3] = details: human, 3 days, 20 µM
Procedure: (§1) [[2-fluoro-4-(1,2,4-oxadiazol-3-yl)phenyl]methyl]amino]-5,5,5-trifluoropentanamide to induce CYP3A4 mRNA was evaluated in vitro using the Fa2N-4 cell line. The Fa2N-4 cell is an immortalized human hepatocyte line that was created using the Simian virus 40 (SV40) T antigen as the immortalizing gene, while retaining basal expression and inducibility of several CYP isoforms, including CYP3A4. Fa2N-4 cells and MFE Support Media F were provided by XenoTech, LLC (Lenexa, Kansas).
(§2) Upon the receipt of the cells, the media were changed and the cells maintained overnight in a humidified, CO2-supplied incubator. After this adaptation period, the cells were examined under a light microscope and a determination was made as to whether the cells were morphologically normal and suitable for use. During the treatment period, the cells were visually inspected on a daily basis; cellular morphology, confluency, and signs of toxicity due to the test article were documented as necessary. […] Rifampicin (10 µM), a prototypical CYP3A4 inducer, was used as the positive control. Fa2N-4 cells were exposed to the test articles for a total of 3 days. The culture medium was replaced daily with fresh medium containing the test articles. After a total of ~72 hours of exposure, medium was aspirated and the cells washed once with warm phosphate buffered saline solution before adding the cell lysis buffer (Qiagen, Valencia, CA).

plasma Aβ40 = test: Rat plasma Aβ40 assay (4G8-TSD ELISA); details: for plasma Aβ40, % of baseline Aβ40 values: 2 to 24 hours post dosing
CYP3A4 mRNA [4] = test: Induction of CYP3A4 mRNA in Fa2N-4 cells; details: Fa2N-4 hepatocytes, 3 days
Procedure: as §1, §2

mouse Notch1-ΔE = test: Inhibition of Notch1-ΔE signaling in Hela cells (CBF1-luciferase reporter); details: read-out: IC50 for inhibition of Notch1-ΔE signaling
Procedure: The mouse Notch1-ΔE construct contains the mouse Notch1 signal sequence and the M1727V mutation within the transmembrane domain to suppress internal translation initiation.
Hela cells were maintained in DMEM (GibcoBRL) containing 10% FBS (GibcoBRL), Penicillin/Streptomycin (GibcoBRL) and 2 mM L-glutamine (GibcoBRL). Cells were transiently transfected using TransIT-HelaMONSTER (Mirus) according to the manufacturer's directions. […] The CBF1-luciferase reporter construct consists of 4X copies of the CBF1 binding element upstream of the SV40 promoter (pGL3-Promoter, Promega). […] DNA stocks were diluted in TE buffer (10 mM Tris, 1 mM EDTA, pH 8.0) for transfection. […] Test compounds were initially diluted in a 96 well polypropylene plate in 100% DMSO. […] Diluted compound solutions (10 µL) were added to the cell plate yielding a final 0.1 % DMSO concentration. Cell plates containing compound were incubated overnight at 37°C. Following this overnight incubation, media was gently removed and 25 µL of phosphate buffered saline (with calcium and magnesium) was added to each well. Luc-Screen (Applied Biosystems) reagents A and B were mixed in equal proportions and 50 µL of the mixture was added to each well. The plate was incubated at room temperature for 10 minutes before black backing was attached to the bottom of the plate and the signal was read on a TopCount (Packard). […]

NC(=O)[C@@H](CCC(F)(F)F)N(Cc1ccc(-c2ncon2)cc1F)S(=O)(=O)c1ccc(Cl)cc1 [(2R)-2-[[(4-chlorophenyl)sulfonyl][[2-fluoro-4-(1,2,4-oxadiazol-3-yl)phenyl]methyl]amino]-5,5,5-trifluoropentanamide]
rate of in vitro metabolism ([1]; human microsomes, NADPH-fortified, 1 µM): 32 pmol/min/mg protein | predicted in vivo (serum) clearance ([1]; human, scaled from liver microsome rate): ~8 mL/min/kg | IC50 (Aβ40): 0.3 ± 0.15 nM | ED50 (CSF Aβ40): 1 to 10 mg/kg | site occupancy ([2]; single dose 1 mg/kg, by 24 hours): gradually returned to baseline values | brain γ-secretase binding sites occupied ([2]; single dose 1 mg/kg, two hours after dose): 75% | γ-secretase inhibitor binding sites in the brain occupied ([2]; single dose 10 mg/kg, 24 hr timepoint): 88% | γ-secretase inhibitor binding sites in the brain occupied ([2]; single dose 10 mg/kg, all but the 24 hr timepoint): greater than 94% | γ-secretase inhibitor binding sites in the brain occupied ([2]; single dose 100 mg/kg, throughout the dosing interval): greater than 94% | magnitude of induction as % of the induction response caused by rifampicin (CYP3A4 mRNA [3]): 22% | ED50 (plasma Aβ40; Rattus norvegicus, read-out: ED50 for reduction of plasma Aβ40): 1 to 10 mg/kg | plasma Aβ40, % of starting values (plasma Aβ40; rat, single dose 1 mg/kg, by 8 hours): 250% | plasma Aβ40 (plasma Aβ40; rat, single dose 1 mg/kg, by 24 hours): returning to baseline values | plasma Aβ40, % of baseline Aβ40 values (plasma Aβ40; rat, single dose 10 mg/kg): less than 25% | plasma Aβ40, % of vehicle control (plasma Aβ40; rat, single dose 30 mg/kg): 2% | plasma Aβ40, % of baseline Aβ40 values (plasma Aβ40; rat, single dose 100 mg/kg): less than 25% | increase in CYP3A4 mRNA expression over the vehicle control (CYP3A4 mRNA [4]; highest concentration tested (20 µM)): 2.6 fold | induction of CYP3A4 (CYP3A4 mRNA [4]; lower concentrations (≤ 8.0 µM)): ≤ 2.0 fold | IC50 (mouse Notch1-ΔE): 58 ± 23 nM
